Experimental data taken from ChEMBL document CHEMBL4680147, “Discovery of 6'-chloro-N-methyl-5'-(phenylsulfonamido)-[3,3'-bipyridine]-5-carboxamide (CHMFL-PI4K-127) as a novel Plasmodium falciparum PI(4)K inhibitor with potent antimalarial activity against both blood and liver stages of Plasmodium” (Eur J Med Chem, 2020).

Columns and labels:
Plasmodium falciparum [1] = test: Antimalarial activity against sulphadoxine-resistant blood stage Plasmodium falciparum 3D7 infected in human O+ erythrocytes incubated for 72 hrs by SYBR Green 1 dye based fluorescence assay; type: functional, organism-based; conditions: 3D7, Erythrocyte
[2] = Inhibition of recombinant His-tagged Plasmodium falciparum 3D7 PI4K expressed in baculovirus infected Sf9 cells using PI:PS as substrate incubated for 1 hr in presence of ATP by ADP-Glo kinase assay
[3] = molecular target: T1, Phosphatidylinositol 4,5-bisphosphate 3-kinase catalytic subunit delta isoform (Homo sapiens, UniProt O00329); test: Inhibition of human PI3Kdelta by ADP-Glo kinase assay
T1 sequence (O00329 whole entry): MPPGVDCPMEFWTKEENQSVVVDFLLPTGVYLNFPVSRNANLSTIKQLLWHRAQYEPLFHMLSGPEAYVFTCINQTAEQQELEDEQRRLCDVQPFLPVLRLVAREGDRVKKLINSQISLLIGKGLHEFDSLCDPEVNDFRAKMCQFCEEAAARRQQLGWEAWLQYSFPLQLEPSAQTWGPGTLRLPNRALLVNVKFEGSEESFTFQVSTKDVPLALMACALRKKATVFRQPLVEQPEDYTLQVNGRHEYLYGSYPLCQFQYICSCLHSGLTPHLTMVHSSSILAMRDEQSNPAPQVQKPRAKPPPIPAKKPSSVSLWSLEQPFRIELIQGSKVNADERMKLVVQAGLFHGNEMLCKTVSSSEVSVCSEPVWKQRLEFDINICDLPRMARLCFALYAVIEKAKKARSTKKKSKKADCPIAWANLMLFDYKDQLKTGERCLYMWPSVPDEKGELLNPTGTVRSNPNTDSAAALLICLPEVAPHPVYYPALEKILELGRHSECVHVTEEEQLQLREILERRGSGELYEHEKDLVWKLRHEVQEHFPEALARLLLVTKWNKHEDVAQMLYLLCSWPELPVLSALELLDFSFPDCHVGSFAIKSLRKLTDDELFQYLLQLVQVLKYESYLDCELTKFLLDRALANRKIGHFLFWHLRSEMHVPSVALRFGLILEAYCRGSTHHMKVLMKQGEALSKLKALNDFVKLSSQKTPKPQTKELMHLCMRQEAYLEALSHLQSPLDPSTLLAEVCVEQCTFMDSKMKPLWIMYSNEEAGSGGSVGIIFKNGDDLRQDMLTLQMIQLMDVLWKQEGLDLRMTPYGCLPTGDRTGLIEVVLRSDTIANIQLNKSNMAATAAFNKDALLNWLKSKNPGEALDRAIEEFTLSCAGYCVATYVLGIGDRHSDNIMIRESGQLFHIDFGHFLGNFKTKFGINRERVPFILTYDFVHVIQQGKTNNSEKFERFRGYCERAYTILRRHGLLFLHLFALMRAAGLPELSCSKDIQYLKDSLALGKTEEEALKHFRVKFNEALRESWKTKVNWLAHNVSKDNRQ

Plasmodium falciparum [4] = test: Antimalarial activity against mefloquine/chloroquine/pyrimethamine resistant Plasmodium falciparum Dd2 infected in human O+ erythrocytes incubated for 72 hrs by SYBR Green 1 dye based fluorescence assay; type: functional, organism-based; conditions: Dd2, Erythrocyte
Plasmodium falciparum [5] = test: Antimalarial activity against chloroquine resistant Plasmodium falciparum FAB9 infected in human O+ erythrocytes incubated for 72 hrs by SYBR Green 1 dye based fluorescence assay; type: functional, organism-based; conditions: FAB9, Erythrocyte
Plasmodium falciparum [6] = test: Antimalarial activity against chloroquine resistant Plasmodium falciparum D10 infected in human O+ erythrocytes incubated for 72 hrs by SYBR Green 1 dye based fluorescence assay; type: functional, organism-based; conditions: D10, Erythrocyte
Plasmodium falciparum [7] = test: Antimalarial activity against pyrimethamine/chloroquine resistant Plasmodium falciparum PC26 infected in human O+ erythrocytes incubated for 72 hrs by SYBR Green 1 dye based fluorescence assay; type: functional, organism-based; conditions: PC26, Erythrocyte
[8] = Inhibition of human PIK3C2alpha by ADP-Glo kinase assay
Plasmodium falciparum [9] = test: Antimalarial activity against artemisinin resistant Plasmodium falciparum 803 infected in human O+ erythrocytes incubated for 72 hrs by SYBR Green 1 dye based fluorescence assay; type: functional, organism-based; conditions: Plasmodium falciparum, 803, Erythrocyte
[10] = molecular target: Phosphatidylinositol 4,5-bisphosphate 3-kinase catalytic subunit beta isoform (Homo sapiens, UniProt P42338); test: Inhibition of human PI3Kbeta by ADP-Glo kinase assay
Phosphatidylinositol 4,5-bisphosphate 3-kinase catalytic subunit beta isoform, sequence (P42338 whole entry, canonical isoform): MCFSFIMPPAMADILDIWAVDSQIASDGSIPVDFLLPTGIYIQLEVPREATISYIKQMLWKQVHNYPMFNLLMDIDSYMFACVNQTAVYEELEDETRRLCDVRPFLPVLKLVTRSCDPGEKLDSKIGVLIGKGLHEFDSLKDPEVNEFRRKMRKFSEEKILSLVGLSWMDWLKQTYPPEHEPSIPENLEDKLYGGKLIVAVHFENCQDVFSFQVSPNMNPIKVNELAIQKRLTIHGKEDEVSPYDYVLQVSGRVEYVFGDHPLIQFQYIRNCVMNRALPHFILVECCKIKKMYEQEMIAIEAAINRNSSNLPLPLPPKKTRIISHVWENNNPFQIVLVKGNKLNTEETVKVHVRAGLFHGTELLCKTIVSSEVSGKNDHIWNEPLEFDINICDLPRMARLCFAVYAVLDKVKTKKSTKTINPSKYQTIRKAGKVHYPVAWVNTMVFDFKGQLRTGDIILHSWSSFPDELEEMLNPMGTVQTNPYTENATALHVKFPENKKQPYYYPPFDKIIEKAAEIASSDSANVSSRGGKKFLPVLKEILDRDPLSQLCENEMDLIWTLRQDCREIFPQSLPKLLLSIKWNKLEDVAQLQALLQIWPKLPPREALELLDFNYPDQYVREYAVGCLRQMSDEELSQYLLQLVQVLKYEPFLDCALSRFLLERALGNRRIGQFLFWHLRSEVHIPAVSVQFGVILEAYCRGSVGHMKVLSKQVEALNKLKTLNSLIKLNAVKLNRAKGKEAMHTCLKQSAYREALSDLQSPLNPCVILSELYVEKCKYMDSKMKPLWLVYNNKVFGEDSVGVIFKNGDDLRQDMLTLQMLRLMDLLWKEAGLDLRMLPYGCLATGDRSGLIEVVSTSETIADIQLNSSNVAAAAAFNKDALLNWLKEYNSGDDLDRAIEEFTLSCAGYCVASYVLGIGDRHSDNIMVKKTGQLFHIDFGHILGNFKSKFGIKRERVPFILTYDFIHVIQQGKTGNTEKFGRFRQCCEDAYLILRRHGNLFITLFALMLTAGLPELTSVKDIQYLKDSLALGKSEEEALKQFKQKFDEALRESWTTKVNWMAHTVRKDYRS

[11] = molecular target: Phosphatidylinositol 3-kinase catalytic subunit type 3 (Homo sapiens, UniProt Q8NEB9); test: Inhibition of human VPS34 by ADP-Glo kinase assay
Phosphatidylinositol 3-kinase catalytic subunit type 3, sequence (Q8NEB9 whole entry): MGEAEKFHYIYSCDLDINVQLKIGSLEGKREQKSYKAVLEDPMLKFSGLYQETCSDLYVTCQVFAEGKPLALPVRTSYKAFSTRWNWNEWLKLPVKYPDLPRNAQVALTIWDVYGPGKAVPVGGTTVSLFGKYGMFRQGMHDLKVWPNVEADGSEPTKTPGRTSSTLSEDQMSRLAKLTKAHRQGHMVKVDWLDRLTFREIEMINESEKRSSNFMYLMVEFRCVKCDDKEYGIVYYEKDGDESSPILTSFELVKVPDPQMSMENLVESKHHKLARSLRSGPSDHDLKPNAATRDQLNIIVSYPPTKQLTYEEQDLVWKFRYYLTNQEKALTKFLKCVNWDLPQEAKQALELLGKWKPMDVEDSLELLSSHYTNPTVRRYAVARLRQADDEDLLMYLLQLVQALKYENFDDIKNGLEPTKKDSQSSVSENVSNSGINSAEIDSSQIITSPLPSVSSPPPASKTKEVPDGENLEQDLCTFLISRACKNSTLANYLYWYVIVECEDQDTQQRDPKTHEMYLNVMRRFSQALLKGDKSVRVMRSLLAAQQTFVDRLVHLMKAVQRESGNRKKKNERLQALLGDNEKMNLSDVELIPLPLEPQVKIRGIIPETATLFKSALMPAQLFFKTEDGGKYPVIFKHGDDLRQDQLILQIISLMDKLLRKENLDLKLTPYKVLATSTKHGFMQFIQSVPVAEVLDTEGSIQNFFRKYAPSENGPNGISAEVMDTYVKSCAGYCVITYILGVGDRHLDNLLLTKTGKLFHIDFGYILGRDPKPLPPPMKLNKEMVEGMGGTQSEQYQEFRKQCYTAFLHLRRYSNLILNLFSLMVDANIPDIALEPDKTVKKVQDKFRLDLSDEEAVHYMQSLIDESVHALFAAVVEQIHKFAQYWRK

Plasmodium falciparum [12] = test: Antimalarial activity against pyrimethamine/chloroquine resistant Plasmodium falciparum CP286 infected in human O+ erythrocytes incubated for 72 hrs by SYBR Green 1 dye based fluorescence assay; type: functional, organism-based; conditions: CP286, Erythrocyte
Plasmodium falciparum [13] = test: Antimalarial activity against artemisinin and piperaquine-phosphate resistant Plasmodium falciparum 6320 infected in human O+ erythrocytes incubated for 72 hrs by SYBR Green 1 dye based fluorescence assay; type: functional, organism-based; conditions: Plasmodium falciparum, 6320, Erythrocyte
[14] = molecular target: Phosphatidylinositol 4-kinase alpha (Homo sapiens, UniProt P42356); test: Inhibition of human PI4K3alpha by ADP-Glo kinase assay
[15] = molecular target: Phosphatidylinositol 4,5-bisphosphate 3-kinase catalytic subunit gamma isoform (Homo sapiens, UniProt P48736); test: Inhibition of human PI3Kgamma by ADP-Glo kinase assay
Plasmodium falciparum [16] = test: Antimalarial activity against Plasmodium falciparum GB4 infected in human O+ erythrocytes incubated for 72 hrs by SYBR Green 1 dye based fluorescence assay; type: functional, organism-based; conditions: GB4, Erythrocyte
[17] = molecular target: Phosphatidylinositol 4-kinase beta (Homo sapiens, UniProt Q9UBF8); test: Inhibition of human PI4K3beta by ADP-Glo kinase assay
Phosphatidylinositol 4-kinase beta, sequence (Q9UBF8 whole entry): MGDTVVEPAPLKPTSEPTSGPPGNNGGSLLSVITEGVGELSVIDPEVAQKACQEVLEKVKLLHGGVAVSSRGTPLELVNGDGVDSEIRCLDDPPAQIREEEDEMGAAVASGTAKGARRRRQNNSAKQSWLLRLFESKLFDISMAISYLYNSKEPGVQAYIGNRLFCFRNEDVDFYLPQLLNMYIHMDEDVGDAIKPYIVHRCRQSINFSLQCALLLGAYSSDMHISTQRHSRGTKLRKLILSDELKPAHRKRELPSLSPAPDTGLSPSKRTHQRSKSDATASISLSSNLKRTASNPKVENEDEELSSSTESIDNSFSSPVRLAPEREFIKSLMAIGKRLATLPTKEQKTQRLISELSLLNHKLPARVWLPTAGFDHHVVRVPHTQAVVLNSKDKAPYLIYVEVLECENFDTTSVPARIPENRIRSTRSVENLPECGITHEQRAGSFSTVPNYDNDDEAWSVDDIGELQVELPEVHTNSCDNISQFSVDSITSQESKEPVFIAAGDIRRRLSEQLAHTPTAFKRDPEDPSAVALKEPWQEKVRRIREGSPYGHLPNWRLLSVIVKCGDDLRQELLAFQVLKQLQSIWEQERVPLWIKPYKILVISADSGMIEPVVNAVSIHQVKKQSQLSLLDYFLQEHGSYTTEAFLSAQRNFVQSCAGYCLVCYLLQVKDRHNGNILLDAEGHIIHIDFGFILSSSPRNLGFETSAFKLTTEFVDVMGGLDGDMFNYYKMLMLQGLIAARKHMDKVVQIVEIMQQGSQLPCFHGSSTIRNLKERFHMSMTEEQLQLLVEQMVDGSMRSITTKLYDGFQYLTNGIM

Plasmodium falciparum [18] = test: Antimalarial activity against pyrimethamine/chloroquine resistant Plasmodium falciparum C2A infected in human O+ erythrocytes incubated for 72 hrs by SYBR Green 1 dye based fluorescence assay; type: functional, organism-based; conditions: Erythrocyte
[19] = molecular target: Phosphatidylinositol 4,5-bisphosphate 3-kinase catalytic subunit alpha isoform (Homo sapiens, UniProt P42336); test: Inhibition of human PI3Kalpha by ADP-Glo kinase assay
[20] = molecular target: Phosphatidylinositol 4-phosphate 3-kinase C2 domain-containing subunit beta (Homo sapiens, UniProt O00750); test: Inhibition of human PIK3C2beta by ADP-Glo kinase assay
Phosphatidylinositol 4-phosphate 3-kinase C2 domain-containing subunit beta, sequence (O00750 whole entry, the tested form may be a part): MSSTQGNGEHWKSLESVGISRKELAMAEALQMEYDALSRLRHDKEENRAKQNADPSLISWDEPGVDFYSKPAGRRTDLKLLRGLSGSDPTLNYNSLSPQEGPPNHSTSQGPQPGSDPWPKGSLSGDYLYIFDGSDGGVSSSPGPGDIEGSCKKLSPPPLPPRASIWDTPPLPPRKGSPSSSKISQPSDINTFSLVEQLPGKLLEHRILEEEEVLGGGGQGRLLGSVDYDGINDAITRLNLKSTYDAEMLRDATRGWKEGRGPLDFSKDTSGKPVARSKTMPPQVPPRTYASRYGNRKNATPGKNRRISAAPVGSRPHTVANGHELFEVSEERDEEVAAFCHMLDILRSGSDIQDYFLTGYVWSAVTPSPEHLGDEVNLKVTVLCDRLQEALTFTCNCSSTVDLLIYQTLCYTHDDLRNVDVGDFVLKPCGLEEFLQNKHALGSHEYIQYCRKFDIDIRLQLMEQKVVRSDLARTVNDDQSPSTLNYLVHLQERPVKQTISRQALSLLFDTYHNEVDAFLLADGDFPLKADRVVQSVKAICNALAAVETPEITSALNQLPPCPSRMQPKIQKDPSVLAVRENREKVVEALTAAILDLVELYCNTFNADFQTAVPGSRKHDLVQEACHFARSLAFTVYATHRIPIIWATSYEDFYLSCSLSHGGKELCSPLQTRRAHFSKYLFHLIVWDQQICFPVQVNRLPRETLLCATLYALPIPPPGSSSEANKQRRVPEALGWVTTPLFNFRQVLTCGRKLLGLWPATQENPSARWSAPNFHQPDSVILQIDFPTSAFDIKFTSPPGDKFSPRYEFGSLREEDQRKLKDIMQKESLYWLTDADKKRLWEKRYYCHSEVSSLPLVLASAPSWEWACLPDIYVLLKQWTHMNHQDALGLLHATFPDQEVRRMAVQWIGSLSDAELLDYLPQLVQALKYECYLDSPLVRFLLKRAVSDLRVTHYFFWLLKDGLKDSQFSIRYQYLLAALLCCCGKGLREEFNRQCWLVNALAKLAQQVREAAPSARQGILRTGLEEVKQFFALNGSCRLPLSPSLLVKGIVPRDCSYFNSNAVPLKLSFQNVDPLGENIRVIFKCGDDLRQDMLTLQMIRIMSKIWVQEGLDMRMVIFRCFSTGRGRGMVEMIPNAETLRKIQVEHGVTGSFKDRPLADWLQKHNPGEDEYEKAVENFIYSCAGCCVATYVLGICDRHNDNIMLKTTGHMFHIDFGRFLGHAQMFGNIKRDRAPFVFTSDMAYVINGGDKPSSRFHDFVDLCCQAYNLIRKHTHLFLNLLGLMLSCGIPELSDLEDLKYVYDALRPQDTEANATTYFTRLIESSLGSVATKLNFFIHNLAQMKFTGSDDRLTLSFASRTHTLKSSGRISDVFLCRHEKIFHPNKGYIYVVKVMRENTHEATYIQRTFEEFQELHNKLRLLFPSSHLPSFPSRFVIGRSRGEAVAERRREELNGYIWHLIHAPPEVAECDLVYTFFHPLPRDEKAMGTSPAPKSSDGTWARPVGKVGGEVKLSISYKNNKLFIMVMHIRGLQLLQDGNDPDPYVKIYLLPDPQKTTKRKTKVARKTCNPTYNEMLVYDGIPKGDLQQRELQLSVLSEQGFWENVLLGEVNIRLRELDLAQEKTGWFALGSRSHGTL

Row | SMILES | EC50 (Plasmodium falciparum [1]) | IC50 [2] | other results
1 | CNC(=O)c1cncc(-c2cnc(Cl)c(NS(=O)(=O)c3ccccc3C(F)(F)F)c2)c1 | 0.087 µM | 0.5 nM | –
2 | CNC(=O)c1cc(-c2cnc(Cl)c(NS(=O)(=O)c3ccccc3)c2)c[nH]1 | > 10 µM | > 156 nM | –
3 | CNC(=O)c1cncc(-c2cnc(Cl)c(NS(=O)(=O)c3ccc(Cl)cc3Cl)c2)c1 | 0.12 µM | 1.2 nM | –
4 | O=C(Nc1ccccc1)c1cncc(-c2cnc(Cl)c(NS(=O)(=O)c3ccccc3)c2)c1 | 3.68 µM | 145 nM | –
5 | O=C(Nc1cccc(F)c1)c1cncc(-c2cnc(Cl)c(NS(=O)(=O)c3ccccc3)c2)c1 | > 10 µM | > 156 nM | –
6 | O=S(=O)(Nc1cc(-c2ccncc2)cnc1Cl)c1ccccc1 | > 10 µM | > 156 nM | –
7 | CNC(=O)c1cncc(-c2cnc(Cl)c(NS(=O)(=O)c3ccc(Cl)cc3)c2)c1 | 0.071 µM | 1.6 nM | –
8 | CNC(=O)c1cncc(-c2cnc(Cl)c(NS(=O)(=O)c3ccc(C)cc3C)c2)c1 | 0.039 µM | 2.2 nM | –
9 | CCNC(=O)c1cncc(-c2cnc(Cl)c(NS(=O)(=O)c3ccccc3)c2)c1 | 0.12 µM | 2.3 nM | –
10 | CCS(=O)(=O)Nc1cc(-c2cncc(C(=O)NC)c2)cnc1Cl | 3.5 µM | 52.6 nM | –
11 | NCCNC(=O)c1cncc(-c2cnc(Cl)c(NS(=O)(=O)c3ccccc3)c2)c1 | 0.13 µM | 13.8 nM | –
12 | CNC(=O)c1cncc(-c2cnc(Cl)c(NS(=O)(=O)c3ccc(C)cc3)c2)c1 | 0.039 µM | 1.2 nM | –
13 | Cn1cc(-c2cnc(Cl)c(NS(=O)(=O)c3ccccc3)c2)cn1 | 1.49 µM | 10 nM | –
14 | CNC(=O)c1ccc(-c2cnc3cnc(C(=O)N(C)c4ccc(Cl)cc4)cn23)cc1 | 0.0411 µM | 1.6 nM | IC50 [3]: 3.1 µM; EC50 (Plasmodium falciparum [4]): 46.7 nM; EC50 (Plasmodium falciparum [5]): 44.8 nM; EC50 (Plasmodium falciparum [6]): 43.9 nM; EC50 (Plasmodium falciparum [7]): 54.9 nM; IC50 [8]: > 10 µM; EC50 (Plasmodium falciparum [9]): 41.8 nM; IC50 [10]: 2730 nM; IC50 [11]: 9.2 µM; EC50 (Plasmodium falciparum [12]): 31.9 nM; EC50 (Plasmodium falciparum [13]): 33.6 nM; IC50 [14]: 1420 nM; IC50 [15]: 5.92 µM; EC50 (Plasmodium falciparum [16]): 39.2 nM; IC50 [17]: > 10 µM; EC50 (Plasmodium falciparum [18]): 33.7 nM; IC50 [19]: > 10 µM; IC50 [20]: > 10 µM
15 | CNC(=O)c1cncc(-c2cnc(Cl)c(NS(=O)(=O)c3cccc(C(F)(F)F)c3)c2)c1 | 3.5 µM | 2.5 nM | –
16 | CNC(=O)c1cncc(-c2cnc(Cl)c(NS(=O)(=O)c3ccc(C(F)(F)F)cc3)c2)c1 | 0.13 µM | > 156 nM | –

Row | SMILES | EC50 (Plasmodium falciparum [1]) | IC50 [2] | other results
17 | CNC(=O)c1cc(-c2cnc(Cl)c(NS(=O)(=O)c3ccccc3)c2)ccn1 | > 10 µM | > 156 nM | –
18 | CNC(=O)c1cccc(-c2cnc(Cl)c(NS(=O)(=O)c3ccccc3)c2)c1 | > 10 µM | > 156 nM | –
19 | CNC(=O)c1cncc(-c2cnc(Cl)c(NS(=O)(=O)c3ccc4c(c3)CCO4)c2)c1 | 0.34 µM | 4.5 nM | –
20 | CNC(=O)c1cncc(-c2cnc(Cl)c(NS(=O)(=O)c3ccc(F)cc3F)c2)c1 | 3.4 µM | 0.4 nM | –
21 | O=S(=O)(Nc1cc(-c2cnc3[nH]ccc3c2)cnc1Cl)c1ccccc1 | 3.94 µM | 7.7 nM | –
22 | O=C(NCc1ccccc1)c1cncc(-c2cnc(Cl)c(NS(=O)(=O)c3ccccc3)c2)c1 | 3.57 µM | 8.5 nM | –
23 | CN(C)[C@H]1CCN(C(=O)c2cncc(-c3cnc(Cl)c(NS(=O)(=O)c4ccccc4)c3)c2)C1 | > 10 µM | > 156 nM | –
24 | O=S(=O)(Nc1cc(-c2cnc3[nH]ncc3c2)cnc1Cl)c1ccccc1 | 4.67 µM | 5.6 nM | –
25 | O=S(=O)(Nc1cc(-c2cccnc2)cnc1Cl)c1ccccc1 | 4.71 µM | 12.7 nM | –
26 | CC(=O)n1ccc2cc(-c3cnc(Cl)c(NS(=O)(=O)c4ccccc4)c3)cnc21 | 1.05 µM | 8.1 nM | –
27 | CCCS(=O)(=O)Nc1cc(-c2cncc(C(=O)NC)c2)cnc1Cl | 0.48 µM | 13.2 nM | –
28 | CNC(=O)c1cncc(-c2cnc(Cl)c(NC(=O)c3ccccc3)c2)c1 | > 10 µM | > 156 nM | –
29 | CNC(=O)c1cncc(-c2cnc(Cl)c(NS(=O)(=O)c3cccc(-c4ccccc4)c3)c2)c1 | 7.7 µM | 7.5 nM | –
30 | O=C(Nc1ccc(F)cc1)c1cncc(-c2cnc(Cl)c(NS(=O)(=O)c3ccccc3)c2)c1 | > 10 µM | > 156 nM | –
31 | CNC(=O)c1cncc(-c2cnc(Cl)c(NS(=O)(=O)c3ccc(-c4ccccc4)cc3)c2)c1 | 5.88 µM | 8.8 nM | –
32 | C[C@H](CN)NC(=O)c1cncc(-c2cnc(Cl)c(NS(=O)(=O)c3ccccc3)c2)c1 | > 10 µM | > 40 nM | –
